This note sets out measurements from PubChem BioAssay (NCI).

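Values below derive from 48-hour exposures of cells grown in 96-well plates, with endpoints linearly interpolated between the two concentrations bracketing the appropriate inhibition level. Definition used: TGI = concentration required for complete inhibition of growth.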 Where a SMILES comes first, the peptide text is derived from it. [ ]: non-standard residue; d: D form. The star is where a group is joined. NMeV = CN[C@H](C(=O)O)C(C)C; X29 = COc1ccc(CN*)c(OC)c1; Octanoyl = CCCCCCCC(=O)*; dNMeA = CN[C@H](C)C(=O)O

Test systems include HS 578T breast; BT-549 breast; MALME-3M melanoma; SK-MEL-2 melanoma; HL-60(TB) leukemia; HCT-116 colon; NCI-H23 lung; MDA-MB-231 breast; SK-MEL-28 melanoma; RPMI-8226 leukemia; LOX IMVI melanoma; SNB-19 CNS; HOP-62 NSCLC; DU-145 prostate; TK-10 renal; A498 renal; ACHN renal.
Common to all, as to test: growth of human tumour cells (NCI), 48 h

Take `CNC(=O)C1(N)c2ccccc2C=Cc2ccccc21`: the TGI in the experiment on HS 578T breast, with BT-549 breast, in the experiment on MALME-3M melanoma, with SK-MEL-2 melanoma, in the experiment with HL-60(TB) leukemia and in the experiment on HCT-116 colon was above 100 µM in each case. Also, the TGI in the experiment on NCI-H23 lung, in the experiment on MDA-MB-231 breast, with SK-MEL-28 melanoma, with RPMI-8226 leukemia, with LOX IMVI melanoma and with SNB-19 CNS was above 100 µM throughout. The TGI in the experiment on HOP-62 NSCLC, in the experiment with DU-145 prostate, in the experiment on TK-10 renal, in the experiment with A498 renal and with ACHN renal was above 100 µM in each case.

Turning to `Cc1ccc(NC(Nc2ccc(C)cc2C)=C(/C=C(\Cl)[N+](=O)[O-])[N+](=O)[O-])c(C)c1`, the TGI in the experiment on HS 578T breast came to 17 µM; in the experiment with BT-549 breast, 11.7 µM; in the experiment on MALME-3M melanoma it was 7.13 µM; in the experiment on SK-MEL-2 melanoma, 16.9 µM; in the experiment on HL-60(TB) leukemia, 2.6 µM; in the experiment on HCT-116 colon, 3.14 µM. The TGI amounted to 20.8 µM with NCI-H23 lung; 17.3 µM in the experiment with MDA-MB-231 breast; 4.77 µM in the experiment on SK-MEL-28 melanoma; 4.36 µM with RPMI-8226 leukemia; 3.25 µM in the experiment with LOX IMVI melanoma; 26 µM with SNB-19 CNS. The TGI with HOP-62 NSCLC was determined as 34.1 µM; with DU-145 prostate it was 33.2 µM; in the experiment with TK-10 renal, 13.2 µM; in the experiment with A498 renal it was 32.4 µM; in the experiment on ACHN renal, 8.26 µM.

With `COc1cc(/C=C/c2nc(NC(=S)Nc3ccccc3)nnc2C)cc(OC)c1OC`, the TGI with HS 578T breast was above 100 µM; in the experiment on BT-549 breast, 89 µM; in the experiment with MALME-3M melanoma, above 100 µM; in the experiment with SK-MEL-2 melanoma, 38.1 µM; with HL-60(TB) leukemia it was 34.1 µM; in the experiment on HCT-116 colon it was 86 µM. For the same molecule, the TGI in the experiment with NCI-H23 lung is 66.9 µM; in the experiment on MDA-MB-231 breast, above 100 µM; with SK-MEL-28 melanoma, above 100 µM; in the experiment on RPMI-8226 leukemia it was 67.8 µM; in the experiment on LOX IMVI melanoma, above 100 µM; in the experiment with SNB-19 CNS, above 100 µM. Moreover, the TGI is above 100 µM with HOP-62 NSCLC; above 100 µM with DU-145 prostate; above 100 µM in the experiment on TK-10 renal; 82.4 µM in the experiment with A498 renal; 48.1 µM with ACHN renal.

On to `O=C(NC1CCCCC1NC(c1ccccc1)(c1ccccc1)c1ccccc1)C(=O)NC1CCCCC1NC(c1ccccc1)(c1ccccc1)c1ccccc1` (stereo not given), for which the TGI in the experiment with HS 578T breast was 72.5 µM; in the experiment with BT-549 breast, above 100 µM; with MALME-3M melanoma, above 100 µM; in the experiment on SK-MEL-2 melanoma, above 100 µM; in the experiment on HL-60(TB) leukemia, above 100 µM; in the experiment with HCT-116 colon, above 100 µM. In addition, the TGI in the experiment on NCI-H23 lung, with MDA-MB-231 breast, in the experiment with SK-MEL-28 melanoma, in the experiment on RPMI-8226 leukemia, in the experiment with LOX IMVI melanoma and with SNB-19 CNS was above 100 µM each time. In addition, the TGI in the experiment on HOP-62 NSCLC, in the experiment on DU-145 prostate, with TK-10 renal, with A498 renal and in the experiment with ACHN renal was above 100 µM in each case.

As to `CCCCCCCC(=O)N[C@H](C(=O)N[C@H](C(=O)N(C)[C@H](C(=O)N1CCC[C@H]1C(=O)N(C)[C@H](C)C(=O)NCc1ccc(OC)cc1OC)C(C)C)C(C)C)C(C)C` (Octanoyl-VV[NMeV]P[dNMeA]-X29), the TGI in the experiment on HS 578T breast is 33.4 µM; in the experiment with BT-549 breast, above 61.2 µM; in the experiment with MALME-3M melanoma, 24.3 µM; in the experiment with SK-MEL-2 melanoma it was 42.3 µM; with HL-60(TB) leukemia, 11.3 µM; with HCT-116 colon it was above 50.1 µM. In addition, the TGI is above 82.4 µM with NCI-H23 lung; 35.5 µM with MDA-MB-231 breast; above 68.2 µM with SK-MEL-28 melanoma; above 26.3 µM in the experiment with RPMI-8226 leukemia; 30.8 µM with LOX IMVI melanoma; above 100 µM in the experiment with SNB-19 CNS. The TGI in the experiment with HOP-62 NSCLC is above 100 µM; in the experiment on DU-145 prostate, above 100 µM; in the experiment with TK-10 renal, above 100 µM; in the experiment with A498 renal, 12.2 µM; in the experiment on ACHN renal it was 42.4 µM.

`COC1/C=C/C(C)C(C(C)C(OC)C(C)CCC(=O)C(C)C(C/C=C/N(C)C=O)OC)OC(=O)C=CC2OC2(C)CC(OC)C(OC)C2=CC(=O)O[C@@H](C(C)C(OC)CC(OC)/C=C/C(C)C(O)C1)[C@H]2O` (stereo not given in full): the TGI was 0.0351 µM in the experiment with HS 578T breast; 0.0907 µM in the experiment with BT-549 breast; 0.854 µM in the experiment on MALME-3M melanoma; 0.0446 µM in the experiment on SK-MEL-2 melanoma; 0.0785 µM in the experiment with HL-60(TB) leukemia; 0.00596 µM in the experiment with HCT-116 colon. Also, the TGI was above 0.322 µM with NCI-H23 lung; 0.0197 µM in the experiment on MDA-MB-231 breast; above 1.24 µM with RPMI-8226 leukemia; 0.00617 µM with LOX IMVI melanoma; 0.0316 µM in the experiment on SNB-19 CNS; 0.0227 µM in the experiment on HOP-62 NSCLC. For the same molecule, the TGI worked out at 0.199 µM in the experiment on DU-145 prostate, 0.0304 µM in the experiment with TK-10 renal, 0.0259 µM in the experiment with A498 renal and 0.016 µM with ACHN renal.

In the case of `CCOC(=O)C1=NOC2(C=C(Br)C(=O)C(Br)=C2)C1`, the TGI amounted to 68.1 µM in the experiment with HS 578T breast; 17.8 µM with BT-549 breast; 1.25 µM in the experiment on MALME-3M melanoma; 15 µM in the experiment with SK-MEL-2 melanoma; 1.1 µM in the experiment on HL-60(TB) leukemia; 2.63 µM with HCT-116 colon. The TGI with NCI-H23 lung turned out to be 9.41 µM; in the experiment on MDA-MB-231 breast, 21.9 µM; in the experiment with SK-MEL-28 melanoma it was 24.7 µM; in the experiment with RPMI-8226 leukemia, 2.56 µM; in the experiment with LOX IMVI melanoma it was 7.63 µM; in the experiment on SNB-19 CNS, 40 µM. Also, the TGI in the experiment on HOP-62 NSCLC amounted to 16.2 µM; in the experiment on DU-145 prostate it was 17.8 µM; in the experiment on TK-10 renal, 2.27 µM; in the experiment on A498 renal it was 38 µM; in the experiment with ACHN renal it was 2.25 µM.

Consider `Oc1ccc(-c2cc(-c3cc(-c4ccc(O)cc4)no3)on2)cc1`, for which the TGI with HS 578T breast, in the experiment with BT-549 breast, with MALME-3M melanoma, in the experiment with SK-MEL-2 melanoma, in the experiment on HL-60(TB) leukemia and in the experiment with HCT-116 colon was above 100 µM in each case. In addition, the TGI in the experiment on NCI-H23 lung, in the experiment on MDA-MB-231 breast, with SK-MEL-28 melanoma, in the experiment with RPMI-8226 leukemia, with LOX IMVI melanoma and in the experiment on SNB-19 CNS was above 100 µM in each case. Also, the TGI with HOP-62 NSCLC, in the experiment on DU-145 prostate, in the experiment on TK-10 renal, in the experiment on A498 renal and with ACHN renal was above 100 µM each time.

For the molecule `O=C(O)C12C3CCC(CC3)C1(C(=O)O)C1CCC2C1` (stereo not given), the TGI with HS 578T breast, in the experiment on BT-549 breast, in the experiment on MALME-3M melanoma, in the experiment on SK-MEL-2 melanoma, in the experiment on HL-60(TB) leukemia and with HCT-116 colon was above 100 µM in each case. The TGI with NCI-H23 lung, in the experiment with MDA-MB-231 breast, in the experiment on SK-MEL-28 melanoma, in the experiment on RPMI-8226 leukemia, with LOX IMVI melanoma and in the experiment with SNB-19 CNS was above 100 µM each time. Moreover, the TGI in the experiment on HOP-62 NSCLC, with DU-145 prostate, with TK-10 renal, in the experiment with A498 renal and in the experiment on ACHN renal was above 100 µM each time.

`CC(C)(C)c1cc2c(OC/C=C/c3ccccc3)c(c1)Cc1cc(C(C#N)(OC/C=C/c3ccccc3)OC/C=C/c3ccccc3)cc(c1OC/C=C\c1ccccc1)Cc1cc(C(C)(C)C)cc(c1OC/C=C/c1ccccc1)Cc1cc(C(C#N)(OC/C=C\c3ccccc3)OC/C=C/c3ccccc3)cc(c1OC/C=C\c1ccccc1)C2` (stereo not given): the TGI with HS 578T breast, with BT-549 breast, with MALME-3M melanoma, in the experiment with SK-MEL-2 melanoma, in the experiment with HL-60(TB) leukemia and in the experiment on HCT-116 colon was above 100 µM throughout. Further, the TGI in the experiment with NCI-H23 lung, in the experiment on MDA-MB-231 breast, with SK-MEL-28 melanoma, with RPMI-8226 leukemia, in the experiment on LOX IMVI melanoma and with SNB-19 CNS was above 100 µM each time. For the same molecule, the TGI is above 100 µM with HOP-62 NSCLC; above 100 µM in the experiment with DU-145 prostate; 54.3 µM in the experiment on TK-10 renal; above 100 µM in the experiment with A498 renal; above 100 µM with ACHN renal.

Turning to `O=C1OCC2OC(=O)c3cc(O)c(O)c(O)c3-c3c(O)c(O)c(O)c4c3C(=O)OC(C2OC(=O)c2cc(O)c(O)c(O)c2-c2c1cc(O)c(O)c2O)C1OC(=O)c2c-4c(O)c(O)c(O)c2[C@@H]1C(O)C(O)C(O)C(O)CO` (stereo not given in full), the TGI was found to be 70.3 µM in the experiment with HS 578T breast; 55.2 µM in the experiment with BT-549 breast; 38.9 µM in the experiment with MALME-3M melanoma; 48.3 µM with SK-MEL-2 melanoma; 50.8 µM in the experiment with HL-60(TB) leukemia; 31.3 µM with HCT-116 colon. Besides, the TGI with NCI-H23 lung was 43.5 µM; in the experiment with MDA-MB-231 breast, 30.5 µM; in the experiment with SK-MEL-28 melanoma it was above 100 µM; with RPMI-8226 leukemia, 73.8 µM; in the experiment on LOX IMVI melanoma it was 6.04 µM; in the experiment on SNB-19 CNS, above 100 µM. Moreover, the TGI in the experiment with HOP-62 NSCLC is 34 µM; in the experiment with DU-145 prostate, 47.5 µM; in the experiment on A498 renal, above 100 µM; with ACHN renal it was 30.7 µM.
